Reference: patent US6603046B1, “Bis-aromatic a,β-unsaturated ketones” (Lica Pharmaceuticals A/S, priority 1992, dated 2003)
≈ marks a conversion by molar mass, not a printed value. Where two headings read alike, the source gives them in different places.

Tests used:
human lymphocytes = test: Lymphocyte Proliferation Assay, 3H-thymidine incorporation (Example 13); settings: Homo sapiens, Lymphocyte, read-out: inhibition of lymphocytes (lower figure)
[1] = 4-Hydroxychalcone toxicity study in mice, i.p. (Example 22); assay type: in vivo, BALB/c female mice; settings: for No. died after 24 h: n 4
Description: Mice. BALB/c female mice, 8 weeks old, 20 g body weight.
Drug. 4Hydroxychalcone prepared as in Example 2.
LD50. 80 mg of 4hydroxychalcone was dissolved in 0.2 ml of 99% (v/v) ethanol, and then mixed with 240 mg of Brij 35 dissolved in 19.8 ml of buffer pH 73 (NaH2PO4.H2O 26 mg, Na2HPO4.2H2O 520 mg and distilled water 100 ml), and then sterile filtered through a 0.22 μm Millipore filter. Drug was injected intraperitoneally into mice once.

P. falciparum = P. falciparum growth in vitro (Table 14.1, strain not stated); assay type: cell-based; settings: Plasmodium falciparum, read-out: inhibition of malaria parasites (middle figure) (converted); for inhibition at 0.5 µg/mL: 0.5 μg/ml; for inhibition at 1 µg/mL: 1 μg/ml; for inhibition at 5 µg/mL: 5 μg/ml; for inhibition at 10 µg/mL: 10 μg/ml
Description: The P. falciparum experimental setup was as described in Example 15.
Testing of the effect of drugs and serum on the in vitro growth of the parasites. The experiments in which compounds were tested for their ability to inhibit parasite growth were performed by a modification of the method originally described by Jensen et al. (1982). Fifty μl of parasitized erythrocytes (parasitemia approximately 1%) in a concentration of 5×10^8/ml and 50 μl of RPMI medium containing different concentrations of the test compound was added to each well of a 96 well flat-bottomed microtiter plate (Nunc). The cultures were then incubated for 48 hours, 24 hours before termination of the culture adding 20 μl of 3-H-hypoxanthine (40 uCi/ml) (New England Nuclear, Boston, Mass., USA) was added to each well. The cultures were then harvested onto glass fiber filters using a Skatron cell harvester (Skatron, Lierbyen, Norway), and the incorporation of 3-H-hypoxanthine into the DNA of dividing parasites was determined by liquid scintillation spectrometry.

[2] = test system: chloroquine-sensitive P. falciparum 3D7A strain; test: In vitro growth of P. falciparum 3D7A, 3H-hypoxanthine uptake (Example 15); assay type: cell-based, Plasmodium falciparum
L. major promastigotes [3] = test: L. major promastigotes from 4-days cultures, 3H-thymidine uptake (Examples 5, 14); assay type: cell-based, Leishmania major; settings: Leishmania major, Table 14.1, read-out: percentage inhibition of promastigotes (upper figure); for inhibition at 0.5 µg/mL: 0.5 μg/ml; for inhibition at 1 µg/mL: 1 μg/ml; for inhibition at 5 µg/mL: 5 μg/ml; for inhibition at 10 µg/mL: 10 μg/ml
Outline: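 Promastigotes harvested on day 4 of culture were exposed to compound, then pulsed with 100 μC 3H-thymidine for a further 18 h. Cells were collected on filter paper, washed, and incorporated radioactivity counted by scintillation.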

[4] = test system: chloroquine resistant P. falciparum DD2 strain; test: In vitro growth of P. falciparum DD2, 3H-hypoxanthine uptake (Example 15); assay type: cell-based, Plasmodium falciparum; settings: for Growth in % of control (mean ± SEM): title: percentage inhibition of 3H-hypoxanthine uptake
[5] = Rate of the reaction between N-acetyl-L-cysteine and chalcones, HPLC; assay type: physicochemical; settings: methanol-water-potassium phosphate buffer pH 7.5, 30° C.; first order
Excerpt: The decline of the chalcone concentration was followed by HPLC. The following experimental setups were used: 1. […] 2. […] This system was used i the case of 4′-methoxychalcone. The rate of decline of the chalcone concentration was followed by HPLC. The rate constant was estimated using Grafit and assuming that the reaction followed first order kinetic; i.e.: [c]=[c0]exp(−kt) where [c] is the concentration of the chalcone in question at time t, [c0] is the concentration of the chalcone in question at time zero, k is the rate constant, and t the time.

L. major promastigotes [6] = test: In vitro growth of L. major promastigotes, 3H-thymidine uptake (Example 4); assay type: cell-based, Leishmania major; settings: in vitro L. major growth test
P. yoelii strain YM = P. yoelii strain YM infection in mice, parasitemia and mortality (Example 16); assay type: in vivo, BALB/c mice
[7] = Plasmodium falciparum; read-out: concentration in which growth was retarded by 50%
[8] = title: percentage inhibition of 3H-hypoxanthine uptake; 0.5 μg/ml
[9] = title: percentage inhibition of 3H-hypoxanthine uptake; 1 μg/ml
[10] = title: percentage inhibition of 3H-hypoxanthine uptake; 5 μg/ml
[11] = title: percentage inhibition of 3H-hypoxanthine uptake; 10 μg/ml
[12] = D + 10, i.p. 0.5 mg/kg/day once daily D0-D + 3
[13] = D + 12, i.p. 0.5 mg/kg/day once daily D0-D + 3
[14] = D + 14, i.p. 0.5 mg/kg/day once daily D0-D + 3
[15] = D + 16, i.p. 0.5 mg/kg/day once daily D0-D + 3
[16] = D + 16, i.p. 2.5 mg/kg/day once daily D0-D + 3
[17] = D + 18, i.p. 0.5 mg/kg/day once daily D0-D + 3
[18] = D + 18, i.p. 2.5 mg/kg/day once daily D0-D + 3
[19] = D + 20, i.p. 0.5 mg/kg/day once daily D0-D + 3
[20] = D + 20, i.p. 2.5 mg/kg/day once daily D0-D + 3
[21] = D + 20, i.p. 5 mg/kg/day once daily D0-D + 3

## O=C(/C=C/c1ccc(O)cc1)c1ccccc1 [4-Hydroxychalcone, 4-hydroxychalcone]
Human lymphocytes
  inhibition at 1 µg/mL: 2.24%
  inhibition at 5 µg/mL: 7.73%
  inhibition at 10 µg/mL: 14.2%
[1]; 50 mg/kg i.p.
  No. died after 24 h: 0
[1]; 100 mg/kg i.p.
  No. died after 24 h: 0
[1]; 200 mg/kg i.p.
  No. died after 24 h: 1
[1]; 400 mg/kg i.p.
  No. died after 24 h: 2
[1]; mice
  LD50, intraperitoneally: 400 mg per kg
P. falciparum
  inhibition at 0.5 µg/mL: 20.5%
  inhibition at 1 µg/mL: 29.2%
  inhibition at 5 µg/mL: 61.3%
  inhibition at 10 µg/mL: 88.2%
[2]; [7]
  IC50: 1 to 5 µg/mL (≈ 4.46 to 22.3 µM)
[2]; [8]
  Percentage inhibition of 3H-hypoxanthine uptake (mean ± SEM): 20.5 ± 10.9%
[2]; [9]
  Percentage inhibition of 3H-hypoxanthine uptake (mean ± SEM): 29.2 ± 7.7%
[2]; [10]
  Percentage inhibition of 3H-hypoxanthine uptake (mean ± SEM): 61.3 ± 10.6%
[2]; [11]
  Percentage inhibition of 3H-hypoxanthine uptake (mean ± SEM): 88.2 ± 5.3%
L. major promastigotes [3]
  inhibition at 0.5 µg/mL: 7%
  inhibition at 1 µg/mL: 49.1 ± 16.8%
  inhibition at 5 µg/mL: 80.1 ± 12.6%
  inhibition at 10 µg/mL: 91 ± 5.4%

## C=CCOc1ccc(C(=O)/C=C/c2cccc(OC)c2OC)cc1 [2,3-Dimethoxy-4′-allyloxychalcone, 2,3-dimethoxy-4′-prop-2-enyloxychalcone]
other
  melting point: 98 to 99 °C
[4]; 0.5 μg/ml
  Growth in % of control (mean ± SEM): 28.5 ± 9.6%
[4]; 1 μg/ml
  Growth in % of control (mean ± SEM): 29.6 ± 10.9%
[4]; 5 μg/ml
  Growth in % of control (mean ± SEM): 22.2 ± 10.1%
[4]; 10 μg/ml
  Growth in % of control (mean ± SEM): 49.9 ± 9.1%

## COc1ccc(C(=O)/C=C/c2ccccc2)cc1 [drawing 103, 4′-methoxychalcone]
[5]
  Estimated rate constant k: 0.016 min⁻¹

## O=C(/C=C/c1ccccc1)c1ccc(O)cc1 [4′-Hydroxychalcone, 4′-hydroxychalcone]
Human lymphocytes
  inhibition at 1 µg/mL: 3.6%
  inhibition at 5 µg/mL: 10.2%
  inhibition at 10 µg/mL: 17%
P. falciparum
  inhibition at 0.5 µg/mL: 29.9%
  inhibition at 1 µg/mL: 40.5%
  inhibition at 5 µg/mL: 64.3%
  inhibition at 10 µg/mL: 95.6%
[2]; [7]
  IC50: 1 to 5 µg/mL (≈ 4.46 to 22.3 µM)
[2]; [8]
  Percentage inhibition of 3H-hypoxanthine uptake (mean ± SEM): 29.9 ± 10.7%
[2]; [9]
  Percentage inhibition of 3H-hypoxanthine uptake (mean ± SEM): 40.5 ± 11.1%
[2]; [10]
  Percentage inhibition of 3H-hypoxanthine uptake (mean ± SEM): 64.2 ± 8.5%
[2]; [11]
  Percentage inhibition of 3H-hypoxanthine uptake (mean ± SEM): 95.5 ± 1.1%
L. major promastigotes [3]
  inhibition at 0.5 µg/mL: 26.4 ± 6.5%
  inhibition at 1 µg/mL: 37.3 ± 13.6%
  inhibition at 5 µg/mL: 73.4 ± 15.3%
  inhibition at 10 µg/mL: 90.1 ± 6.5%

## CC(C)=CCc1cc(/C=C/C(=O)c2ccc(O)c(CC=C(C)C)c2O)ccc1O [4,2′,4′-trihydroxy-3,3′-di-(3-methylbut-2-enyl)chalcone]
L. major promastigotes [6]
  antiparasitic effect in bioassay-guided fractionation: showed major antiparasitic effects

## C=CC(C)(OC)c1cc(CCC(=O)c2ccc(O)cc2)c(OC)cc1O (stereo not shown)
[5]
  Estimated rate constant k: 0.00058 min⁻¹

## CCN(CC)CCCC(C)Nc1ccnc2cc(Cl)ccc12 (stereo not shown) [Chloroquine, chloroquine phosphate, reference compound]
P. yoelii strain YM; D + 4, i.p. 0.5 mg/kg/day once daily D0-D + 3
  % parasitemia (mean ± SEM): 0.9 ± 0.5%
P. yoelii strain YM; D + 4, i.p. 2.5 mg/kg/day once daily D0-D + 3
  % parasitemia (mean ± SEM): 0.2 ± 0.2%
P. yoelii strain YM; D + 4, i.p. 5 mg/kg/day once daily D0-D + 3
  % parasitemia (mean ± SEM): 0.02 ± 0.04%
P. yoelii strain YM; D + 6, i.p. 0.5 mg/kg/day once daily D0-D + 3
  % parasitemia (mean ± SEM): 24 ± 8.6%
P. yoelii strain YM; D + 6, i.p. 2.5 mg/kg/day once daily D0-D + 3
  % parasitemia (mean ± SEM): 2.4 ± 2.2%
P. yoelii strain YM; D + 6, i.p. 5 mg/kg/day once daily D0-D + 3
  % parasitemia (mean ± SEM): 0%
P. yoelii strain YM; D + 8, i.p. 0.5 mg/kg/day once daily D0-D + 3
  % parasitemia (mean ± SEM): 57.4 ± 4.2%
P. yoelii strain YM; D + 8, i.p. 2.5 mg/kg/day once daily D0-D + 3
  % parasitemia (mean ± SEM): 28.3 ± 16.2%
P. yoelii strain YM; D + 8, i.p. 5 mg/kg/day once daily D0-D + 3
  % parasitemia (mean ± SEM): 0.1 ± 0.17%
P. yoelii strain YM; [12]
  % parasitemia (mean ± SEM): 66.3 ± 6.6%
  mortality (no. of dead mice/total no. of tested mice): (2/5)
P. yoelii strain YM; D + 10, i.p. 2.5 mg/kg/day once daily D0-D + 3
  % parasitemia (mean ± SEM): 33.7 ± 19.8%
P. yoelii strain YM; D + 10, i.p. 5 mg/kg/day once daily D0-D + 3
  % parasitemia (mean ± SEM): 2.8 ± 2.7%
P. yoelii strain YM; [13]
  % parasitemia (mean ± SEM): 49.7 ± 17.6%
  mortality (no. of dead mice/total no. of tested mice): (2/5)
P. yoelii strain YM; D + 12, i.p. 2.5 mg/kg/day once daily D0-D + 3
  % parasitemia (mean ± SEM): 40.2 ± 21%
P. yoelii strain YM; D + 12, i.p. 5 mg/kg/day once daily D0-D + 3
  % parasitemia (mean ± SEM): 13 ± 4.4%
P. yoelii strain YM; [14]
  % parasitemia (mean ± SEM): 35.3 ± 4.7%
  mortality (no. of dead mice/total no. of tested mice): (2/5)
P. yoelii strain YM; D + 14, i.p. 2.5 mg/kg/day once daily D0-D + 3
  % parasitemia (mean ± SEM): 37.4 ± 19.8%
P. yoelii strain YM; D + 14, i.p. 5 mg/kg/day once daily D0-D + 3
  % parasitemia (mean ± SEM): 22.4 ± 6.1%
P. yoelii strain YM; [15]
  % parasitemia (mean ± SEM): 18.5 ± 19.1%
  mortality (no. of dead mice/total no. of tested mice): (3/5)
P. yoelii strain YM; [16]
  % parasitemia (mean ± SEM): 4.7 ± 4.6%
  mortality (no. of dead mice/total no. of tested mice): (2/5)
P. yoelii strain YM; D + 16, i.p. 5 mg/kg/day once daily D0-D + 3
  % parasitemia (mean ± SEM): 62.2 ± 24.5%
P. yoelii strain YM; [17]
  % parasitemia (mean ± SEM): 9%
  mortality (no. of dead mice/total no. of tested mice): 4/5
P. yoelii strain YM; [18]
  % parasitemia (mean ± SEM): 0%
  mortality (no. of dead mice/total no. of tested mice): 2/5
P. yoelii strain YM; D + 18, i.p. 5 mg/kg/day once daily D0-D + 3
  % parasitemia (mean ± SEM): 75.2 ± 3.3%
P. yoelii strain YM; [19]
  % parasitemia (mean ± SEM): 0%
  mortality (no. of dead mice/total no. of tested mice): 4/5
P. yoelii strain YM; [20]
  % parasitemia (mean ± SEM): 0%
  mortality (no. of dead mice/total no. of tested mice): 2/5
P. yoelii strain YM; [21]
  % parasitemia (mean ± SEM): 50 ± 16.4%
  mortality (no. of dead mice/total no. of tested mice): (1/5)
[2]; Plasmodium falciparum, read-out: concentration in which growth was retarded by 50%
  IC50: 38 to 75 µg/mL
[2]; title: percentage inhibition of 3H-hypoxanthine uptake; 38 ng/ml
  Percentage inhibition of 3H-hypoxanthine uptake (mean ± SEM): 34.0 ± 6.1%
[2]; title: percentage inhibition of 3H-hypoxanthine uptake; 75 ng/ml
  Percentage inhibition of 3H-hypoxanthine uptake (mean ± SEM): 80.2 ± 3.7%
[2]; title: percentage inhibition of 3H-hypoxanthine uptake; 150 ng/ml
  Percentage inhibition of 3H-hypoxanthine uptake (mean ± SEM): 97.1 ± 1.0%
[2]; title: percentage inhibition of 3H-hypoxanthine uptake; 300 ng/ml
  Percentage inhibition of 3H-hypoxanthine uptake (mean ± SEM): 98.8 ± 0.3%
[4]; Plasmodium falciparum, DD2, read-out: concentration in which parasite growth was retarded by 50%
  IC50: 0.075 to 0.15 µg/mL
